The values that follow are results of earlier work, collected in US9139604B2, “Antiviral phosphonate analogs” (Gilead Sciences, Inc., priority 2003, dated 2015).

The series relates to HIV. Particulars: described in the literature; kind of value (EC50/IC50) not stated.

In the case of `Nc1nc(=O)c2ncn([C@@H]3C[C@H](CO)[C@H]3CO)c2[nH]1` [lubocavir], the anti-HIV activity is 30 µM.
